Data: patent US20140213575A1, “6H-Thieno[3,2-f][1,2,4]triazolo[4,3-a][1,4]diazepines” (BAYER INTELLECTUAL PROPERTY GMBH, priority 2011, published 2014)

Assays:
MCF-7 cells = test: Cellular proliferation assay (alamarBlue) MCF-7; format: cell-based; settings: Homo sapiens, MCF7, 96 hours, read-out: Breast MCF-7 IC50
Procedure: (§1) In accordance with the invention, the ability of the substances to inhibit the proliferation of various cell lines was determined. Cell viability was determined by means of the alamarBlue® reagent (Invitrogen). […] After incubation overnight at 37° C., the fluorescence values were determined (CI values). […] Then the fluorescence values were determined (CO values).
(§2) The substances were investigated in the cell lines in Table 1, which for example represent the stated indications: […]

MOLM-13 cells = test: MOLM-13 acute monocytic leukaemia tumour model; settings: for T/C value: day 3 to day 14, measured on day 14; for activity on tumour growth: significance P<0.05
Procedure: NMRI nude mice were inoculated subcutaneously in the right flank on day 0 with 2×10^6 MOLM-13 cells in 0.1 ml Matrigel. […] Practical example 1 and practical example 2 were dissolved in 40% PEG400, 5% ethanol, 25% Solutol. The substances were administered orally, daily for […] (day 3 to day 14). […] Practical examples 1 and 2 were applied at a daily dose of 200 (highest dose used), 120 or 70 mg/kg.

[1] = In-vivo tolerability in the mouse; set-up: species or system female NMRI nude mice; settings: for MTD / MTD at 5 days: female, NMRI nude, mouse, in vivo, oral; for MTD: once daily, read-out: maximum tolerated treatment dose (MTD), single daily treatment; for MTD at 5 days: twice daily, after 5 days of treatment, read-out: maximum tolerated treatment dose (MTD), twice daily administration; for Drug-induced deaths (day): 3 animals per group; for tolerability at all doses tested: treatment once or twice daily
Procedure: The substances were formulated in NMP/PEG300 (1/9 V/V). They were administered orally, in an amount of 10 ml/kg, once or twice daily for a period of 5 to 7 days to female NMRI nude mice (6-8 weeks old; 3 animals per group). Body weight and mortality of the mice were monitored daily up to the end of the study. Toxicity was defined as follows: ≧10% substance-induced deaths or ≧20% weight loss.

MOLP-8 cells = test: Cellular proliferation assay (alamarBlue) MOLP-8; format: cell-based; settings: Homo sapiens, 120 hours, read-out: Multiple myeloma MOLP-8 IC50
Procedure: as §1, §2

[2] = Plasma concentrations from in-vivo tests and PK parameters; set-up: AUC(0-tlast): unit not given here; settings: mouse; for unbound exposure in comparison with comparative example V1: after single oral administration, by AUC(0-tlast),norm,u; for AUC(0-tlast),norm,u: AUCnorm multiplied by fu; for AUC(0-tlast),norm: dose-normalized; for tlast: last time point with measurable plasma concentration; for Plasma concentration: 50 mg/kg p.o.
Procedure: After thawing and shaking, the samples are centrifuged for 20 minutes at 4° C. and approx. 2000×g. An aliquot of the supernatant (approx. 25 μL) is measured by LCMS analysis. If high plasma or tissue levels are expected (>ULOQ, as a rule 5 μM) the precipitated samples are additionally diluted 1:100 with ACN/H2O (80/20, v/v)+internal standard and corresponding aliquots are measured by LCMS. For this, the test substance is added in 5-9 concentrations, corresponding to the determination range of the analytical method, to a control matrix (calibration samples), e.g. 0, 1, 10, 100, 1000, 5000 nM. For this, a portion of solid is weighed and is dissolved in DMSO (as a rule 1 mM stock solution). This stock solution is further diluted 1:10 with DMSO ([…]). Then 1:5 (v/v) ACN+internal standard (soln. A) is added to the calibration samples and processed further as with the plasma samples. The calibration series in solvent takes place similarly to the plasma calibration described. The test substance is in this case prepared in ACN/H2O (50/50, v/v) and then 1:5 (v/v) ACN+internal standard is added to the samples. This series serves for calibration of the diluted samples. The following PK parameters are calculated from these concentration-time profiles obtained: […]
AUC(0-tlast),norm multiplied by the free fraction (fu) of the species investigated.

HeLa-MaTu cells = test: Cellular proliferation assay (alamarBlue) HeLa-MaTu; format: cell-based; settings: 96 hours, read-out: Cervix HeLa-MaTu IC50
Procedure: as §1, §2

B16F10 melanoma = B16F10 melanoma tumour model
Procedure: (§3) C57BL/6 mice were inoculated on day 0 with 0.5×10^6 cells in 0.1 ml medium, subcutaneously, in the right flank. […] The substances were administered orally for 10 days (day 2 to day 11). […] Practical example 2 was applied at a dose of 160 or 120 mg/kg.

[3] = B16F10 melanoma tumour model; settings: C57BL/6, mouse, in vivo, po
Procedure: as §3

[4] = oral 50 mg/kg, QD × 5, once daily
[5] = oral 50 mg/kg, QD × 5, twice daily
[6] = oral 100 mg/kg, QD × 5, once daily
[7] = oral 100 mg/kg, QD × 5, twice daily
[8] = oral 200 mg/kg, QD × 5, once daily

Structure (SMILES): Cc1sc2c(c1C)C(c1ccc(Cl)cc1)=N[C@@H](CC(=O)N1C3CCC1CC(=O)C3)c1nnc(C)n1-2 [Example 1, 8-{2-[(S)-4-(4-Chlorophenyl)-2,3,9-trimethyl-6H-thieno[3,2-f][1,2,4]triazolo[4,3-a][1,4]diazepin-6-yl]acetyl}-8-azabicyclo[3.2.1]octan-3-one]
- IC50 (MCF-7 cells): 146 nM
- T/C value (MOLM-13 cells; 70 mg/kg oral daily): 58%
- activity on tumour growth (MOLM-13 cells; 70 mg/kg oral daily): inactive
- T/C value (MOLM-13 cells; 120 mg/kg oral daily): 46%
- activity on tumour growth (MOLM-13 cells; 120 mg/kg oral daily): showed activity
- T/C value (MOLM-13 cells; 200 mg/kg oral daily): 39%
- activity on tumour growth (MOLM-13 cells; 200 mg/kg oral daily): inhibited tumour growth
- MTD [1]: ≥ 200 mg/kg
- MTD at 5 days [1]: ≥ 100 mg/kg
- % maximum body weight change (day) [1, 4]: +7 (6) %
- Remarks (tolerability) [1, 4]: tolerated
- Drug-induced deaths (day) [1, 4]: 0/3
- % maximum body weight change (day) [1, 5]: +5 (4) %
- Remarks (tolerability) [1, 5]: tolerated
- Drug-induced deaths (day) [1, 5]: 0/3
- % maximum body weight change (day) [1, 6]: +6 (6) %
- Remarks (tolerability) [1, 6]: tolerated
- Drug-induced deaths (day) [1, 6]: 0/3
- % maximum body weight change (day) [1, 7]: −1 (6) %
- Remarks (tolerability) [1, 7]: HDT tolerated
- Drug-induced deaths (day) [1, 7]: 0/3
- % maximum body weight change (day) [1, 8]: +5 (6) %
- Remarks (tolerability) [1, 8]: HDT tolerated
- Drug-induced deaths (day) [1, 8]: 0/3
- tolerability at all doses tested [1]: well tolerated
- IC50 (MOLP-8 cells): 70 nM
- concentration at 1 h ([2]; in vivo, po, 100 mg/kg p.o., 1 h): 1470 ng/mL
- unbound exposure in comparison with comparative example V1 [2]: higher unbound exposure
- AUC(0-tlast) ([2]; single oral dose 100 mg/kg): 4.9
- AUC(0-tlast),norm,u ([2]; single oral dose 100 mg/kg): 0.006 kg·h/L
- AUC(0-tlast),norm ([2]; single oral dose 100 mg/kg): 0.05 kg·h/L
- tlast ([2]; single oral dose 100 mg/kg): 24 h
- concentration at 3 h ([2]; plasma, po, 100 mg/kg p.o., 3 h): 836 ng/mL
- concentration at 6 h ([2]; plasma, po, 100 mg/kg p.o., 6 h): 176 ng/mL
- concentration at 24 h ([2]; plasma, po, 100 mg/kg p.o., 24 h): 1.56 ng/mL
- IC50 (HeLa-MaTu cells): 251 nM

Structure (SMILES): Cc1sc2c(c1C)C(c1ccc(Cl)cc1)=N[C@@H](CC(=O)N1CC3(COC3)C1)c1nnc(C)n1-2 [Example 2, 2-[(S)-4-(4-Chlorophenyl)-2,3,9-trimethyl-6H-thieno[3,2-f][1,2,4]triazolo[4,3-a][1,4]diazepin-6-yl]-1-(2-oxa-6-azaspiro[3.3]hept-6-yl)ethan-1-one]
- IC50 (MCF-7 cells): 116 nM
- T/C value (B16F10 melanoma; 120 mg/kg (MTD), oral, day 2 to day 11): 27%
- weight loss (B16F10 melanoma; 120 mg/kg dose, oral, day 2 to day 11): 2%
- weight loss (B16F10 melanoma; 160 mg/kg dose, oral, day 2 to day 11): 5%
- mice killed because of weight loss above 20% (B16F10 melanoma; group treated with 70 mg/kg, day 10): one mouse
- MTD at 10 days [3]: 120 mg/kg
- T/C value (MOLM-13 cells; 70 mg/kg oral daily): 46%
- activity on tumour growth (MOLM-13 cells; 70 mg/kg oral daily): not statistically significant
- T/C value (MOLM-13 cells; 120 mg/kg oral daily): 46%
- activity on tumour growth (MOLM-13 cells; 120 mg/kg oral daily): not statistically significant
- T/C value (MOLM-13 cells; 200 mg/kg oral daily): 23%
- activity on tumour growth (MOLM-13 cells; 200 mg/kg oral daily): active
- deaths in the treated group (MOLM-13 cells; MOLM-13 tumour model, dose group not stated): one unexplained death
- MTD [1]: ≥ 200 mg/kg
- MTD at 5 days [1]: ≥ 100 mg/kg
- % maximum body weight change (day) [1, 4]: +5 (6) %
- Remarks (tolerability) [1, 4]: tolerated
- Drug-induced deaths (day) [1, 4]: 0/3
- % maximum body weight change (day) [1, 5]: +2 (6) %
- Remarks (tolerability) [1, 5]: tolerated
- Drug-induced deaths (day) [1, 5]: 0/3
- % maximum body weight change (day) [1, 6]: −1 (3) %
- Remarks (tolerability) [1, 6]: tolerated
- Drug-induced deaths (day) [1, 6]: 0/3
- % maximum body weight change (day) [1, 7]: −3 (5) %
- Remarks (tolerability) [1, 7]: HDT tolerated
- Drug-induced deaths (day) [1, 7]: 0/3
- % maximum body weight change (day) [1, 8]: +4 (4) %
- Remarks (tolerability) [1, 8]: HDT tolerated
- Drug-induced deaths (day) [1, 8]: 0/3
- tolerability at all doses tested [1]: well tolerated
- IC50 (MOLP-8 cells): 64 nM
- Plasma concentration ([2]; 1 h): 1366.5 ng/mL
- Plasma concentration ([2]; 3 h): 2694.4 ng/mL
- Plasma concentration ([2]; 6 h): 1111.0 ng/mL
- unbound exposure in comparison with comparative example V1 [2]: higher unbound exposure
- AUC(0-tlast) ([2]; single oral dose 50 mg/kg): 10
- AUC(0-tlast),norm,u ([2]; single oral dose 50 mg/kg): 0.050 kg·h/L
- AUC(0-tlast),norm ([2]; single oral dose 50 mg/kg): 0.20 kg·h/L
- tlast ([2]; single oral dose 50 mg/kg): 6.0 h
- IC50 (HeLa-MaTu cells): 202 nM
